Target: T1, Bcl-2 protein (Recombinant Human Bcl-2 Protein) (Homo sapiens, UniProt P10415)
T1 construct: purchased Novus NBP2-34889
Assay: Binding evaluation of mixture library compounds to Bcl-2 using AS-MS (affinity selection mass spectrometry)
Conditions: for ASMS ratio (%) n = 1 / ASMS ratio (%) n = 2: ASMS Ratio(%)=(A−C)/B×100; for ASMS ratio (%) n = 1: replicate n = 1; for ASMS ratio (%) n = 2: replicate n = 2
In short: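 Bcl-2 binding is scored from LC/MS signal retained with protein through gel-filtration spin columns, normalised to unfiltered and protein-free controls. Incubation: 20 μM protein, […] per compound, 1 h, 23° C.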

[1] = AS-MS on the mixture of 1200 library compounds
[2] = AS-MS, mixture of 1200 compounds, Bcl-2

T1 sequence (P10415 whole entry): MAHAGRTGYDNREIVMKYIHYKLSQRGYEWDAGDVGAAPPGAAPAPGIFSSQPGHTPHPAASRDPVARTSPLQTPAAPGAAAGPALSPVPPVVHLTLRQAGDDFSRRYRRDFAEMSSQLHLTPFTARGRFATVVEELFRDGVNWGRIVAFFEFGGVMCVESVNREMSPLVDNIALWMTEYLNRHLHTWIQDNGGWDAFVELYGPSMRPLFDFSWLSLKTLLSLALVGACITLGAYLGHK

Row | Molecule | ASMS ratio (%) n = 1 [1] [%] | ASMS ratio (%) n = 2 [1] [%] | ASMS ratio (%) n = 1 [2] [%] | ASMS ratio (%) n = 2 [2] [%] | further results
1 | CCOc1cncc(-c2csc(CN3CCN(c4ccc(C(=O)NS(=O)(=O)CC56CC7CC(CC(C7)C5)C6)nn4)CC3)c2)c1 [B2A094-01, N-(1-Adamantylmethylsulfonyl)-6-[4-[[4-(5-ethoxypyridin-3-yl)thiophen-2-yl]methyl]piperazin-1-yl]pyridazine-3-carboxamide] | – | – | – | – | ASMS ratio (%) n = 1 (AS-MS, mixture library, Bcl-2): 0.0%; ASMS ratio (%) n = 2 (AS-MS, mixture library, Bcl-2): 0.0%
2 | 6-[4-[4-(3-Ethoxyphenyl)thiophene-2-carbonyl]piperazin-1-yl]-N-propylpyridazine-3-carboxamide [B1M081-01] | 0.0 | 0.0 | – | – | –
3 | CCOc1cccc(-c2cc(CN3CCN(c4ccc(C(=O)NCC56CC7CC(CC(C7)C5)C6)cc4)CC3)cc(OC(C)C)c2)c1 [B1A057-01, N-(1-Adamantylmethyl)-4-[4-[[3-(3-ethoxyphenyl)-5-propan-2-yloxyphenyl]methyl]piperazin-1-yl]benzamide] | – | – | 0.0 | 0.0 | –
4 | CCOc1cccc(C#Cc2cncc(C(=O)N3CCN(c4ccc(C(=O)NS(=O)(=O)CCC(F)(F)F)nn4)CC3)c2)c1 [B2N009-01, 6-[4-[5-[2-(3-Ethoxyphenyl)ethynyl]pyridine-3-carbonyl]piperazin-1-yl]-N-(3,3,3-trifluoropropylsulfonyl)pyridazine-3-carboxamide] | – | – | – | – | ASMS ratio (%) (n = 1): 0.0%; ASMS ratio (%) (n = 2): −0.4%
5 | CCOc1cccc(-c2ccc(CN3CCN(c4ccc(C(=O)N(CC)CC)cc4)CC3)cc2C)c1 [B4J047-01, 4-[4-[[4-(3-Ethoxyphenyl)-3-methylphenyl]methyl]piperazin-1-yl]-N,N-diethylbenzamide] | −6.6 | 0.0 | – | – | –
6 | 6-[4-[[4-(3-Ethoxyphenyl)-3-methylphenyl]methyl]piperazin-1-yl]-N-propylpyridazine-3-carboxamide [B1M059-01] | – | – | −5.5 | −7.2 | –
7 | CCOc1cncc(-c2cc(CN3CCN(c4ccc(C(=O)NCC56CC7CC(CC(C7)C5)C6)cc4)CC3)cc(C(F)(F)F)c2)c1 [B1A062-01, N-(1-Adamantylmethyl)-4-[4-[[3-(5-ethoxypyridin-3-yl)-5-(trifluoromethyl)phenyl]methyl]piperazin-1-yl]benzamide] | – | – | −0.3 | −9.7 | –
8 | CCOc1cncc(-c2ccccc2CCC(=O)N2CCN(c3ccc(C(=O)N(C)CC45CC6CC(CC(C6)C4)C5)cc3)CC2)c1 [B3A034-01, N-(1-Adamantylmethyl)-4-[4-[3-[2-(5-ethoxypyridin-3-yl)phenyl]propanoyl]piperazin-1-yl]-N-methylbenzamide] | 1.3 | −0.6 | – | – | –
9 | CCOc1cccc(-c2ccccc2CCC(=O)N2CCN(c3ccc(C(=O)NCC45CC6CC(CC(C6)C4)C5)nn3)CC2)c1 [B1A011-01, N-(1-Adamantylmethyl)-6-[4-[3-[2-(3-ethoxyphenyl)phenyl]propanoyl]piperazin-1-yl]pyridazine-3-carboxamide] | – | – | 11.2 | −13.2 | –
10 | CCOc1cccc(-c2ccc(C(C)N3CCN(c4ccc(C(=O)NCC(F)(F)F)cc4)CC3)c(F)c2)c1 (centres unmarked) [B1K099-01, 4-[4-[1-[4-(3-Ethoxyphenyl)-2-fluorophenyl]ethyl]piperazin-1-yl]-N-(2,2,2-trifluoroethyl)benzamide] | – | – | 0.0 | 0.0 | –
11 | CCOc1cncc(-c2ccc(CN3CCN(c4ccc(C(=O)NS(=O)(=O)c5ccc(NCCSc6ccccc6)c([N+](=O)[O-])c5)nn4)CC3)c3ccccc23)c1 [B2Q092-01] | – | – | – | – | ASMS ratio (%) n = 1 (AS-MS, mixture library, Bcl-2): 10.4%; ASMS ratio (%) n = 2 (AS-MS, mixture library, Bcl-2): 4.8%
12 | CCOc1cncc(-c2ccc(CN3CCN(c4ccc(C(=O)NCC(F)(F)F)cc4)CC3)cc2F)c1 [B1K052-01, 4-[4-[[4-(5-Ethoxypyridin-3-yl)-3-fluorophenyl]methyl]piperazin-1-yl]-N-(2,2,2-trifluoroethyl)benzamide] | – | – | −3.3 | 0.5 | –
13 | CCOc1cccc(-c2ccc(C(=O)N3CCN(c4ccc(C(=O)NS(=O)(=O)c5ccc(NCCSc6ccccc6)c(C(F)(F)F)c5)nn4)CC3)c3ccccc23)c1 [B2R013-01, 6-[4-[4-(3-Ethoxyphenyl)naphthalene-1-carbonyl]piperazin-1-yl]-N-[4-(2-phenylsulfanylethylamino)-3-(trifluoromethyl)phenyl]sulfonylpyridazine-3-carboxamide] | – | – | – | – | ASMS ratio (%) (n = 1): 7.5%; ASMS ratio (%) (n = 2): 7.7%
14 | 4-[4-[4-(5-Ethoxypyridin-3-yl)thiophene-2-carbonyl]piperazin-1-yl]-N-propylbenzamide [B1M084-01] | 0.0 | 0.0 | – | – | –
15 | CCOc1cccc(-c2cc(CN3CCN(c4ccc(C(=O)NS(=O)(=O)c5ccc(NCCSc6ccccc6)c(C(F)(F)F)c5)nn4)CC3)cc(C(F)(F)F)c2)c1 [B2R087-01, 6-[4-[[3-(3-Ethoxyphenyl)-5-(trifluoromethyl)phenyl]methyl]piperazin-1-yl]-N-[4-(2-phenylsulfanylethylamino)-3-(trifluoromethyl)phenyl]sulfonylpyridazine-3-carboxamide] | – | – | – | – | ASMS ratio (%) (n = 1): 3.8%; ASMS ratio (%) (n = 2): 7.1%
16 | CCOc1cncc(-c2cc(CN3CCN(c4ccc(C(=O)NS(=O)(=O)C(C)(C)C)cc4)CC3)cc(C(F)(F)F)c2)c1 [B2L062-01, N-tert-Butylsulfonyl-4-[4-[[3-(5-ethoxypyridin-3-yl)-5-(trifluoromethyl)phenyl]methyl]piperazin-1-yl]benzamide] | – | – | – | – | ASMS ratio (%) (n = 1): 0.0%; ASMS ratio (%) (n = 2): 0.0%
17 | 6-[4-[3-[2-(3-Ethoxyphenyl)ethynyl]-5-(trifluoromethyl)benzoyl]piperazin-1-yl]-N-propylpyridazine-3-carboxamide [B1M013-01] | – | – | 2.9 | −1.1 | –
18 | 4-[4-[1-[4-(5-Ethoxypyridin-3-yl)phenyl]ethyl]piperazin-1-yl]-N-propylbenzamide [B1M004-01] | – | – | 0.0 | 0.0 | –

Further lines, with some results ahead:

Row | ASMS ratio (%) n = 1 [1] [%] | ASMS ratio (%) n = 2 [1] [%] | ASMS ratio (%) n = 1 [2] [%] | ASMS ratio (%) n = 2 [2] [%] | Molecule | further results
19 | 4.1 | 0.4 | – | – | CCOc1cccc(-c2ccc(CN3CCN(c4ccc(C(=O)Nc5ccc(OC)cc5)nn4)CC3)cc2F)c1 [B1O077-01, 6-[4-[[4-(3-Ethoxyphenyl)-3-fluorophenyl]methyl]piperazin-1-yl]-N-(4-methoxyphenyl)pyridazine-3-carboxamide] | –
20 | 6.7 | −0.9 | – | – | CCOc1cncc(-c2cc(CN3CCN(c4ccc(C(=O)Nc5ccc(OC)cc5)cc4)CC3)cc(OCC)c2)c1 [B1O056-01, 4-[4-[[3-Ethoxy-5-(5-ethoxypyridin-3-yl)phenyl]methyl]piperazin-1-yl]-N-(4-methoxyphenyl)benzamide] | –
21 | 2.2 | −0.5 | – | – | CCOc1cccc(-c2cc(CN3CCN(c4ccc(C(=O)Nc5ccc(OC)cc5)nn4)CC3)cc(C(F)(F)F)c2)c1 [B1O087-01] | –
22 | 6.6 | 0.7 | – | – | CCOc1cncc(-c2cc(C(=O)N3CCN(c4ccc(C(=O)Nc5ccc(OC)cc5)nn4)CC3)cc(C(C)(C)C)c2)c1 [B1O016-01, 6-[4-[3-tert-Butyl-5-(5-ethoxypyridin-3-yl)benzoyl]piperazin-1-yl]-N-(4-methoxyphenyl)pyridazine-3-carboxamide] | –
